Row | melting point [°C] | SMILES
1 | 175 | COc1ccc(CN(C)CCc2ccc(NC(=O)c3cccc4c(=O)c5cccc(F)c5[nH]c34)cc2)cc1OC
2 | 177 to 183 | O=C(NCc1ccccn1)c1cc2ccnc(Cl)c2[nH]1
3 | 164 to 165 | CC(=O)Nc1ccc(C(C)(C)C)cc1F
4 | 74 to 77 | O=[N+]([O-])c1cc(Cl)c(N=C=S)c(Cl)c1
5 | 312 to 314 | N#Cc1cccc2c1CN(C1CCC(=O)NC1=O)C2=O (configuration not stated)
6 | 128 to 133 | Cc1ccc(S(=O)(=O)Nc2c(CCCCCCC(=O)O)ccc3ccccc23)cc1
7 | 148 to 150 | Nc1nc2ccccc2c2c1ncn2CCOCC#Cc1cccs1
8 | 61 to 63 | COC1CN(C)S(=O)(=O)c2sccc21 (configuration not stated)
9 | 88 to 91 | CCCCCCCCCc1ccc(C(Sc2cccc(NC(=O)CC(=O)OC)c2)C(=O)CCCC(=O)OC)cc1 (configuration not stated)
10 | 236 to 238 | O=C1Nc2cccc(-c3cccc(NC(=O)c4ccc(O)cc4)c3)c2/C1=C/c1ccc[nH]1
11 | 113 to 114 | CC(C)c1nn(-c2ccc(C(F)(F)F)cn2)cc1CCCCOc1cc(CCC(=O)O)n(C)n1
12 | 239 to 240 | CC(=O)O[C@H]1[C@H](NC(=N)Nc2ccccc2)c2cc(C#N)ccc2OC1(C)C (relative stereo)
13 | 183 to 184 | CC(C)(Sc1nc(N)cc(Cl)n1)c1ccccn1
14 | 102 to 104 | CC(CCC(O)CO)=Nc1ncnc2c1ncn2C1OC(CO)C(O)C1O (configuration not stated)
15 | 84 to 86 | CC1(C)Oc2ccc(C(=O)CCl)cc2S1
16 | 147 to 149 | CC(C)(C)OC(=O)NC1CCCOCC=CC2CC2(C(=O)NS(=O)(=O)C2CC2)NC(=O)C2CC(OCc3ccccc3)CN2C1=O (configuration not stated)
17 | 126 to 128 | COC(=O)C(=Cc1cc(OC)cc(OC)c1)c1ccc(Oc2ccc(C=C3SC(=O)NC3=O)cc2)cc1
18 | 126 to 127 | COc1cc2c(cc1OCc1ccccc1)C(O)CN(Cc1cc(OC)c(OC)c(OC)c1)C2 (configuration not stated)
19 | 173 to 174 | Cc1sc(C(=O)OCc2ccccc2)cc1NC(=O)Cc1ccccc1
20 | 196 to 197 | CCOC(=O)c1cc2cc3[nH]c(=O)[nH]c3cc2[nH]1
21 | 130 to 131 | COc1ccc(Cl)cc1CC1CNC(=O)CN(C(=O)Nc2cccc(NC(C)=O)c2)C1=O (configuration not stated)
22 | 238 to 244 | CC1COc2c(N3CCNC(c4ccccc4)C3)c(F)cc3c(=O)c(C(=O)O)cn1c23 (configuration not stated)
23 | 215 to 216 | O=C(/C=C/c1ccc(Br)cc1)Nc1ccccc1C(=O)O

Row | melting point [°C] | SMILES
24 | 243 to 245 | COc1cc(Nc2c(NC(C)C(C)(C)C)c(=O)c2=O)c2ncccc2c1 (configuration not stated)
25 | > 270 | O=c1[nH]c2cc([N+](=O)[O-])c(S(=O)(=O)c3cccc4cnccc34)cc2o1
26 | > 300 | NC(N)=Nc1nc(-c2ccc(-c3nc(N)n[nH]3)o2)cs1
27 | 278 to 280 | O=c1[nH]c2ccccc2c2nc(-c3ccccc3)cn12
28 | 125 to 127 | O=C(NC(=O)C(c1ccccc1)c1ccccc1)OCC(F)(F)F
29 | 264 to 265 | CC(=O)Oc1ccc(C(=O)Oc2ccc(C(=O)O)cc2)cc1C12CC3CC(CC(C3)C1)C2
30 | 165 | CCCCOc1ccc(-c2ccc(=O)[nH]n2)cc1OC
31 | 140 | O=C1c2ccccc2C(=O)N1CCC(=O)N(c1ccccc1)c1ccccc1
32 | 105 to 108 | Cc1ccc(S(=O)(=O)N[C@@H](C)C(=O)N[C@@H](Cc2ccccc2)C(=O)O)cc1
33 | 70 to 71 | CCOC(=O)C(Cc1ccccc1)(Cc1ccc([N+](=O)[O-])cc1)C(=O)OCC
34 | 92 to 100 | CCc1oc2ccccc2c1C(=O)N(Cc1ccccc1)Cc1ccc2c(Br)c(OCC#N)ccc2c1
35 | 182 | CCOC(=O)c1cc(SCc2ccccc2)c(Cl)c(S(N)(=O)=O)c1
36 | 181 to 183 | CCOc1noc(-c2ncn(C(c3ccccc3)(c3ccccc3)c3ccccc3)n2)c1C
37 | 250 to 252 | CCOC(=O)CC(=O)c1c(C(=O)OC)n(C)c2cc(Cl)ccc12
38 | 81 to 82 | COc1cccc(Cc2ccc(N)c(C#N)c2)c1
39 | 177 to 180 | CCOC(=O)c1cnn(C)c1C(=O)Nc1ccn2nc(Br)nc2c1
40 | 180 to 184 | COc1ccc(CCC(N)CC(=O)O)cc1 (configuration not stated)
41 | 171 to 172 | Nc1nc2ccccc2c2c1ncn2CCCCCS(=O)(=O)c1ccccc1
42 | 233 | CN1CCN(C(=O)CCC(=O)c2ccc3[nH]c4ncc(Cl)cc4c3c2)CC1
43 | 73 to 74 | Nc1cc(OCC2=CCCSC2)c(Cl)cc1F
44 | 146 to 148 | CSc1nccc(C)c1NC(=O)CSc1nc2ccccc2o1
45 | 70 | O=C(c1ccc(F)cc1F)C1CCN(CC2=Cc3ccccc32)CC1
46 | 117 to 119 | CN(C)C(=O)N1CCC(c2nn(-c3ccc(C(F)(F)F)cc3)c3ccccc23)CC1

Row | melting point [°C] | SMILES
47 | 158 to 159 | CCSc1scnc1C(=O)O
48 | 66 to 68 | COC(=O)C(C)(C)Oc1cc(C)c(C)c(Br)c1C
49 | 100 to 102 | CN(C)S(=O)(=O)c1cccc(OC(F)F)c1C#N
50 | 156 to 158 | O=C(c1ccccc1)c1ccc(N2CCCC2=O)cc1
51 | 195 to 197 | CC(=O)OCCCCn1cnc2c(Cl)nc(Nc3ccccc3)nc21
52 | 210 to 211 | COc1ncc(C(=O)Nc2c(F)cncc2F)cc1OC1CCCC1
53 | 88.4 to 89.4 | ClCc1cccc2c(C3CCCCC3)nccc12
54 | 246 | Nc1cccc(NC(=O)C(=O)C(=O)O)c1
55 | 205 to 207 | O=C(NCC(F)(F)F)c1cccc(CN2CCN(c3ccc(NC(=O)c4ccccc4-c4ccc(C(F)(F)F)cc4)cc3)CC2)c1
56 | 145 to 147 | COC1=CC(=NC2CCCCC2)c2ccccc2C1=O
57 | 83 to 84 | COc1ccc(-c2oncc2CO)cc1OC
58 | 221 to 223 | CC(C)n1c(=O)c2c(-c3nc(C4CC4)no3)ncn2c2cccnc21
59 | 110 to 113 | Fc1ccc(Oc2ccc3nc(Cl)ncc3c2)c(F)c1
60 | 171 to 173 | CC(COc1ccc(N2N=C3c4ccccc4SCC3CC2=O)cc1)N(C)C (configuration not stated)
61 | 108 to 111 | CC(C)(C)OC(=O)NCCc1ccc(OCCC2Oc3ccccc3N(Cc3ccccc3Cl)C2=O)cc1 (configuration not stated)
62 | 119 to 121 | CC(=O)OC(=Cc1ccccc1)c1ccc(OC(C)=O)c(OC(C)=O)c1[N+](=O)[O-]
63 | 108 to 110 | COc1ccc(/C=C(\C)c2ccc3c(c2)C(C)(C)CCC3(C)C)cc1
64 | 197 | COC(=O)COc1ccc(NC(=O)/C=C/c2ccc(C#N)cc2)cc1
65 | 189 to 190 | COCCn1nc2c(N)nc3ccccc3c2c1CC1CCOCC1
66 | 163 to 165 | CC(C)C[C@@H](NS(=O)(=O)c1ccc(N2CCC(c3ccccc3)CC2)cc1)C(=O)O
67 | 152 to 153 | CCOC(=O)Cc1oc(-n2cnc3ccccc32)nc1-c1ccc(Cl)cc1
68 | 83 to 85 | CCN(CC)C(C)CN1CCc2c(c(=O)oc3cc(OC)ccc23)C1 (configuration not stated)

Row | SMILES | melting point [°C]
69 | CNC12CCCCC1CCc1cc(O)ccc12 (configuration not stated) | 191
70 | C1=C(c2ccccc2)CCN(CCCCc2ccncc2)C1 | 89 to 90
71 | COC(=O)c1cc(CC(C)NCC(O)c2ccc(O)c(CO)c2)ccc1OC (configuration not stated) | 69 to 73
72 | O=P1(NCCBr)OCCCN1CCBr (configuration not stated) | 58 to 59
